The target of one assay is T1, Aurora A kinase (Homo sapiens, UniProt O14965).
T1 sequence (O14965 1-403): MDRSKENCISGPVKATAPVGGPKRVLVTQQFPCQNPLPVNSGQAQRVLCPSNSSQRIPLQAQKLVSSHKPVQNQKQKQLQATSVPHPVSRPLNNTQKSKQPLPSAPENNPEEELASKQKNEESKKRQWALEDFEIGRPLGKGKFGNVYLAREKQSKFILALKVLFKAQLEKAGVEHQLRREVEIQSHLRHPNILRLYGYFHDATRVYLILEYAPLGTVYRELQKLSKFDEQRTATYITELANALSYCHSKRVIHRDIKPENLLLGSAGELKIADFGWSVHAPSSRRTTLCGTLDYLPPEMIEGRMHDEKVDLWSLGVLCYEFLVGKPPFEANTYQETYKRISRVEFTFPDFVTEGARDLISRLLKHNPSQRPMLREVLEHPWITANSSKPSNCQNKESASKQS
Put plainly: IC50 determination for inhibitors of Aurora A (ELISA-type kinase assay, GST-Histone H3 substrate). The assay is classed as biochemical. Conditions: mutant Aurora A kinase, 30 μM ATP, 40 minutes, read-out: IC50 Aurora A kinase inhibition. The method, then:
IC50 Determination for Inhibitors of Aurora A
Aurora A is a serine threonine kinase involved in spindle assembly and chromosome segregation.
The assay is a typically ELISA-type assay where substrate (GST-Histone H3) is coupled to the assay-plate and is phosphorylated by the kinase. Phosphorylation is detected by a mouse anti-Phosphopeptid mAb and an HRP-labeled anti-mouse pAb. The assay is validated for IC50-determination.
Kinase activities were measured by Enzyme-Linked Immunosorbent Assay (ELISA): Maxisorp 384-well plates (Nunc) were coated with recombinant fusion protein comprising residues 1-15 of HistoneH3 fused to the N-terminus of Glutathione-S-Transferase. Plates were then blocked with a solution of 1 mg/mL I-block (a highly purified form of casein, Tropix cat. no. T2015) in phosphate-buffered saline. Kinase reactions were carried out in the wells of the ELISA plate by combining an appropriate amount of mutant Aurora A kinase with test compound and 30 μM ATP. The reaction buffer was 10× Kinase Buffer (Cell Signaling cat. no. 9802) supplemented with 1 μg/mL I-block. Reactions were stopped after 40 minutes by addition of 25 mM EDTA. After washing, substrate phosphorylation was detected by addition of anti-phospho-Histone H3 (Ser 10) 6G3 mAb (Cell Signaling cat. no. 9706) and sheep anti-mouse pAb-HRP (Amersham cat. no. NA931V), followed by colorimetric development with TMB (3,3′,5,5′-tetramethylbenzidine from Kirkegaard & Perry Laboratories). After readout of the adsorbance, IC50 values were calculated using a non-linear curve fit (XLfit software (ID Business Solution Ltd., Guilford, Surrey, UK)).

A further assay deals with HCT 116 cells. Put plainly: Viability assay in HCT 116 cells (CellTiter-Glo Luminescent Cell Viability Assay). The assay is classed as cell-based. Conditions: HCT 116 human colon carcinoma cells, 5 days (120 h) incubation, ATP luminescence. The method, then: Viability Assay in HCT 116 Cells
A viability assay was performed using the CellTiter-Glo® Luminescent Cell Viability Assay (see Promega Corporation's Technical Bulletin No. 288, pp. 1-11 [revised February 2004] which is hereby incorporated by reference in its entirety). This assay is a homogeneous method of determining the number of viable cells in culture based on quantitation of the ATP present, an indicator of metabolically active cells. The assay is designed for use with multiwell formats, making it ideal for automated high-throughput screening (HTS), cell proliferation and cytotoxicity assays. The homogenous assay procedure involves adding a single reagent (containing luciferase, luciferan substrate, and buffer) directly to cells cultured in serum-supplemented medium. Cell washing, removal of medium and multiple pipetting steps are not required. The system detects as few as 15 cells/well in a 384-well format in 10 minutes after adding reagent and mixing.
The homogeneous “add-mix-measure” format results in cell lysis and generation of a luminescent signal proportional to the amount of ATP present. The amount of ATP is directly proportional to the number of cells present in culture. The above-referenced assay generates a “glow-type” luminescent signal, produced by the luciferase reaction, which has a half-life generally greater than five hours, depending on cell type and medium used. The extended half-life eliminates the need to use reagent injectors and provides flexibility for continuous or batch mode processing of multiple plates. The unique homogeneous format avoids errors that may be introduced by other ATP measurement methods that require multiple steps.
HCT 116 cells (human colon carcinoma, ATCC-No. CCl-247) were cultivated in RPMI 1640 medium with GlutaMAX™ I (cell culture media that contains L-Alanyl-L-Glutamine [a stabilized a form/source of L-Glutamine] from Invitrogen, Cat-No. 61870-010), 2.5% Fetal Calf Serum (FCS, Sigma Cat-No. F4135 (FBS)); 100 Units/ml penicillin/100 μg/ml streptomycin (=Pen/Strep from Invitrogen Cat. No. 15140). For the assay the cells were seeded in 384 well plates, 1000 cells per well, in the same medium. The next day the test compounds were added in various concentrations ranging from 30 μM to 0.0015 μM (10 concentrations, 1:3 diluted). After 5 days the viability assay was done according to the instructions of the manufacturer. In brief: the cell-plate was equilibrated to room temperature for approximately 30 minutes and then reagent (containing luciferase, luciferan substrate, and buffer) was added. The contents were carefully mixed for 15 minutes to induce cell lysis. After 45 minutes the luminescent signal was measured in Victor 2, (scanning multiwell spectrophotometer, Wallac).
Medium: RPMI 1640 with cell culture media containing L-Alanyl-L-Glutamine [GlutaMAX™ I (Invitrogen, Cat-No. 61870)], 5% FCS (Sigma Cat.-No. F4135), Pen/Strep (Invitrogen, Cat No. 15140).
HCT116 (ATCC-No. CCl-247): 1000 cells in 60 μl per well of 384 well plate (Greiner 781098, μClear-plate white)
After seeding incubate plates 24 h at 37° C., 5% CO2
2nd. Day: Induction (Treatment with Compounds, 10 Concentrations):
In order to achieve a final concentration of 30 μM as highest concentration 3.5 μl of 10 mM compound stock solution were added directly to 163 μl media. Then step (d) of the dilution procedure described below, was followed.
In order to achieve the second highest to the lowest concentrations, a serial dilution with dilution steps of 1:3 was followed according to the procedure (a-d) as described here below:
(a) for the second highest concentration add 10 μl of 10 mM stock solution of compound to 20 μl dimethylsulfoxide (DMSO)
(b) dilute 8×1:3 (always 10 μl to 20 μl DMSO) in this DMSO dilution row (results in 9 wells with concentrations from 3333.3 μM to 0.51 μM)
(c) dilute each concentration 1: 47.6 (3.5 μl compound dilution to 163 μl media)
(d) add 10 μl of every concentration to 60 μl media in the cell plate […]

`CC(C)N1C(=O)C(C)(C)c2cc3nc(-c4n[nH]c5c4CCC5)[nH]c3cc21` [Example 5, 5-Isopropyl-7,7-dimethyl-2-(1,4,5,6-tetrahydro-cyclopentapyrazol-3-yl)-5,7-dihydro-3H-imidazo[4,5-f]indol-6-one]: the IC50 at Aurora A kinase turned out to be 17 nM.
As for `CC(C)N1C(=O)C(C)(C)c2cc3nc(-c4n[nH]c5c4CCCC5)[nH]c3cc21` [Example 9, 5-Isopropyl-7,7-dimethyl-2-(4,5,6,7-tetrahydro-1H-indazol-3-yl)-5,7-dihydro-3H-imidazo[4,5-f]indol-6-one], the IC50 in the assay with HCT 116 cells is 108 nM; on Aurora A kinase it was 12 nM.
For `CCN1C(=O)C(C)(C)c2cc3nc(-c4n[nH]c5c4COCC5)[nH]c3cc21` [Example 11, 5-Ethyl-7,7-dimethyl-2-(1,4,6,7-tetrahydro-pyrano[4,3-c]pyrazol-3-yl)-5,7-dihydro-3H-imidazo[4,5-f]indol-6-one], in that order: 100 to 2000 nM and 16 nM.
For `CCN1C(=O)C(C)(C)c2cc3nc(-c4n[nH]c5c4CN(C(=O)c4ccc(F)cc4)CC5)[nH]c3cc21` [Example 16, 5-Ethyl-2-[5-(4-fluoro-benzoyl)-4,5,6,7-tetrahydro-1H-pyrazolo[4,3-c]pyridin-3-yl]-7,7-dimethyl-5,7-dihydro-3H-imidazo[4,5-f]indol-6-one], in that order: 100 to 2000 nM and 55 nM.
The corresponding values for `CCN1C(=O)C(C)(C)c2cc3nc(-c4n[nH]c5c4CN(S(=O)(=O)c4ccc(F)cc4)CC5)[nH]c3cc21` [Example 17, 5-Ethyl-2-[5-(4-fluoro-benzenesulfonyl)-4,5,6,7-tetrahydro-1H-pyrazolo[4,3-c]pyridin-3-yl]-7,7-dimethyl-5,7-dihydro-3H-imidazo[4,5-f]indol-6-one] are 100 to 2000 nM and 14 nM.
`CC(C)N1C(=O)C(C)(C)c2cc3nc(-c4n[nH]c5c4CN(C(=O)Cc4cccs4)C5)[nH]c3cc21` [Example 24, 5-Isopropyl-7,7-dimethyl-2-[5-(2-thiophen-2-yl-acetyl)-1,4,5,6-tetrahydro-pyrrolo[3,4-c]pyrazol-3-yl]-5,7-dihydro-3H-imidazo[4,5-f]indol-6-one] returned an IC50 in the assay on HCT 116 cells of 741 nM.
Still for that read-out and setting: for `CCN1C(=O)C(C)(C)c2cc3nc(-c4n[nH]c5c4CN(S(=O)(=O)c4ccc(F)cc4)C5)[nH]c3cc21` [Example 25, 5-Ethyl-2-[5-(4-fluoro-benzenesulfonyl)-1,4,5,6-tetrahydro-pyrrolo[3,4-c]pyrazol-3-yl]-7,7-dimethyl-5,7-dihydro-3H-imidazo[4,5-f]indol-6-one] the value was 100 to 2000 nM.
On the same count and under the same terms, for `CCN1C(=O)C(C)(C)c2cc3nc(-c4n[nH]c5c4CSCC5)[nH]c3cc21` [Example 26, 5-Ethyl-7,7-dimethyl-2-(1,4,6,7-tetrahydro-thiopyrano[4,3-c]pyrazol-3-yl)-5,7-dihydro-3H-imidazo[4,5-f]indol-6-one] the value was 100 to 2000 nM; for `CC(C)N1C(=O)C(C)(C)c2cc3nc(-c4n[nH]c5c4CSC5)[nH]c3cc21` [Example 28, 2-(4,6-Dihydro-1H-thieno[3,4-c]pyrazol-3-yl)-5-isopropyl-7,7-dimethyl-5,7-dihydro-3H-imidazo[4,5-f]indol-6-one], 338 nM.

These data come from patent US20060235013A1, “Tricyclic azole derivatives” (priority 2005, published 2006).
